Measurements: patent publication US8574563B2 (Bristol-Myers Squibb Company, priority 2006, dated 2013)

These compounds were tested on HCV 1b-377-neo replicon cells (assay: HCV replicon assay, HCV 1b-377-neo replicon cells (1b FRET)). Conditions: HCV 1b-377-neo replicon cells; HCV 1b genotype; read-out: EC50 range against HCV 1b (Table 2, Range).
Format: cell-based, Hepatitis C virus genotype 1b
Summary of the method: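 Compounds tested in HCV genotype 1b-377-neo replicon cells with a FRET read-out. Cells resistant to a reference NS5A inhibitor through a Y2065H NS5A mutation were run alongside wild-type cells.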

Structure (SMILES) | EC50 [nM]
CN1CCN(C(C(=O)N2CCC[C@H]2c2ncc(-c3ccc(-c4ccc(-c5c[nH]c([C@@H]6CCCN6C(=O)[C@H]6CCCO6)n5)cc4)cc3)[nH]2)c2ccccc2)CC1 (stereo partly drawn) [Example 103-4, 1-methyl-4-(2-oxo-1-phenyl-2-((2S)-2-(5-(4′-(2-((2S)-1-((2R)-tetrahydro-2-furanylcarbonyl)-2-pyrrolidinyl)-1H-imidazol-4-yl)-4-biphenylyl)-1H-imidazol-2-yl)-1-pyrrolidinyl)ethyl)piperazine] | 0.001 to 0.999

Same assay, conditions: Hepatitis C virus, HCV 1b-377-neo replicon cells; HCV 1b genotype; read-out: EC50 range against HCV 1b (Table 2, Range)

Structure (SMILES) | EC50 [nM]
O=C(Cc1ccccc1F)N1CCC[C@H]1c1ncc(-c2ccc(-c3ccc(-c4cnc([C@@H]5CCCN5C(=O)[C@@H](c5ccccc5)N5CCCCC5)[nH]4)cc3)cc2)[nH]1 [Example 107-28] | 0.001 to 0.999
COC(=O)N[C@H](C(=O)N1CCC[C@H]1c1nc(-c2ccc(-c3ccc(-c4[nH]c([C@@H]5CCCN5C(=O)[C@@H](NC(=O)OC)C(C)C)nc4C)cc3)cc2)c(C)[nH]1)C(C)C [Example E5l, methyl ((1S)-1-(((2S)-2-(4-(4′-(2-((2S)-1-((2S)-2-((methoxycarbonyl)amino)-3-methylbutanoyl)-2-pyrrolidinyl)-4-methyl-1H-imidazol-5-yl)-4-biphenylyl)-5-methyl-1H-imidazol-2-yl)-1-pyrrolidinyl)carbonyl)-2-methylpropyl)carbamate] | 0.001 to 0.999
COC(=O)N[C@@H](C(=O)N1CCC[C@H]1c1ncc(-c2ccc(-c3ccc(-c4[nH]c([C@@H]5CCCN5C(=O)[C@H](NC(=O)OC)c5ccccc5)nc4C(=O)OC)cc3)cc2)[nH]1)c1ccccc1 [Example J16, methyl 2-((2S)-l-((2R)-2-((methoxycarbonyl)amino)-2-phenylacetyl)-2-pyrrolidinyl)-5-(4′-(2-((2S)-1-((2R)-2-((methoxycarbonyl)amino)-2-phenylacetyl)-2-pyrrolidinyl)-1H-imidazol-5-yl)-4-biphenylyl)-1H-imidazole-4-carboxylate] | 0.001 to 0.999
CCOC(=O)N[C@H](C(=O)N1CCC[C@H]1c1nc(-c2ccc(-c3ccc(-c4c[nH]c([C@@H]5CCCN5C(=O)[C@@H](NC(=O)OCC)C(C)C)n4)cc3)cc2)c[nH]1)C(C)C [Example F25, ethyl ((1S)-1-(((2S)-2-(4-(4′-(2-((2S)-1-((2S)-2-((ethoxycarbonyl)amino)-3-methylbutanoyl)-2-pyrrolidinyl)-1H-imidazol-4-yl)-4-biphenylyl)-1H-imidazol-2-yl)-1-pyrrolidinyl)carbonyl)-2-methylpropyl)carbamate] | 0.001 to 0.999
O=C([C@H](O)c1ccccc1)N1C[C@H](O)C[C@H]1c1ncc(-c2ccc(-c3ccc(-c4cnc([C@@H]5C[C@@H](O)CN5C(=O)[C@H](O)c5ccccc5)[nH]4)cc3)cc2)[nH]1 [Example 24-12, (3R,5S,3′R,5′S)-5,5′-(4,4′-biphenyldiylbis(1H-imidazole-5,2-diyl))bis(1-((2R)-2-hydroxy-2-phenylacetyl)-3-pyrrolidinol)] | 1 to 99
CCN(CC)[C@@H](C(=O)N1CCC[C@H]1c1ncc(-c2ccc(-c3ccc(-c4cnc([C@@H]5CCCN5C(=O)[C@@H](Nc5ncccn5)C(C)C)[nH]4)cc3)cc2)[nH]1)c1ccccc1 [cj-11c, N-((1S)-1-(((2S)-2-(5-(4′-(2-((2S)-1-((2R)-2-(diethylamino)-2-phenylacetyl)-2-pyrrolidinyl)-1H-imidazol-5-yl)-4-biphenylyl)-1H-imidazol-2-yl)-1-pyrrolidinyl)carbonyl)-2-methylpropyl)-2-pyrimidinamine] | 0.001 to 0.999
CCN(CC)[C@H](COC)C(=O)N1CCC[C@H]1c1ncc(-c2ccc(-c3ccc(-c4cnc([C@@H]5CCCN5C(=O)[C@@H](NC(=O)OC)C(C)C)[nH]4)cc3)cc2)[nH]1 [Example M91, methyl ((1S)-1-(((2S)-2-(5-(4′-(2-((2S)-1-(N,N-diethyl-O-methyl-D-seryl)-2-pyrrolidinyl)-1H-imidazol-5-yl)-4-biphenylyl)-1H-imidazol-2-yl)-1-pyrrolidinyl)carbonyl)-2-methylpropyl)carbamate] | 1 to 99
COC(=O)N[C@@H](C)C(=O)N1CCC[C@H]1c1ncc(-c2ccc(-c3ccc(-c4cnc([C@@H]5CCCN5C(=O)[C@H](NC(=O)OC)c5ccccc5)[nH]4)cc3)cc2F)[nH]1 [Example D38, methyl ((1R)-2-((2S)-2-(5-(3′-fluoro-4′-(2-((2S)-1-(N-(methoxycarbonyl)-L-alanyl)-2-pyrrolidinyl)-1H-imidazol-5-yl)-4-biphenylyl)-1H-imidazol-2-yl)-1-pyrrolidinyl)-2-oxo-1-phenylethyl)carbamate] | 0.001 to 0.999
CC(C)[C@@H](C(=O)N1CCC[C@H]1c1ncc(-c2ccc(-c3ccc(-c4cnc([C@@H]5CCCN5C(=O)[C@H](C(C)C)N5CCCNC5=O)[nH]4)cc3)cc2)[nH]1)N1CCCNC1=O [OL-5, 1,1′-(4,4′-biphenyldiylbis(1H-imidazole-4,2-diyl(2S)-2,1-pyrrolidinediyl((2S)-3-methyl-1-oxo-1,2-butanediyl)))ditetrahydro-2(1H)-pyrimidinone] | 0.001 to 0.999
CCN(CC)[C@@H](C(=O)N1C[C@@H](F)C[C@H]1c1ncc(-c2ccc(-c3ccc(-c4cnc([C@@H]5C[C@H](F)CN5C(=O)[C@@H](NC(=O)OC)C(C)C)[nH]4)cc3)cc2)[nH]1)c1ccccc1 [JG-15, methyl ((1S)-1-(((2S,4S)-2-(5-(4′-(2-((2S,4S)-1-((2R)-2-(diethylamino)-2-phenylacetyl)-4-fluoro-2-pyrrolidinyl)-1H-imidazol-5-yl)-4-biphenylyl)-1H-imidazol-2-yl)-4-fluoro-1-pyrrolidinyl)carbonyl)-2-methylpropyl)carbamate] | 0.001 to 0.999
COC(=O)N[C@@H](C(=O)N1CCC[C@H]1c1ncc(-c2ccc(-c3ccc(-c4cnc([C@@H]5CCCN5C(=O)c5cnc[nH]5)[nH]4)cc3)cc2)[nH]1)c1ccccc1 [Example M65, methyl ((1R)-2-((2S)-2-(5-(4′-(2-((2S)-1-(1H-imidazol-5-ylcarbonyl)-2-pyrrolidinyl)-1H-imidazol-5-yl)-4-biphenylyl)-1H-imidazol-2-yl)-1-pyrrolidinyl)-2-oxo-1-phenylethyl)carbamate] | 1 to 99
COC(=O)N[C@H](C(=O)N1CC2(CC2)C[C@H]1c1ncc(-c2ccc(-c3ccc(-c4cnc([C@@H]5CC6(CC6)CN5C(=O)[C@@H](NC(=O)OC)C(C)C)[nH]4)cc3)cc2)[nH]1)C(C)C [Example M145] | 0.001 to 0.999
COC(=O)N[C@@H](C(=O)N(C)[C@@H](C)c1ncc(-c2ccc(-c3ccc(-c4cnc([C@@H]5CCCN5C(=O)[C@H](NC(=O)OC)c5ccccc5)[nH]4)cc3)cc2)[nH]1)c1ccccc1 [Example 24-18-4, methyl ((1R)-2-((2S)-2-(5-(4′-(2-((1S)-1-(((2R)-2-((methoxycarbonyl)amino)-2-phenylacetyl)(methyl)amino)ethyl)-1H-imidazol-5-yl)-4-biphenylyl)-1H-imidazol-2-yl)-1-pyrrolidinyl)-2-oxo-1-phenylethyl)carbamate] | 0.001 to 0.999
CN(C)[C@@H](C(=O)N1CCC[C@H]1c1ncc(-c2ccc(-c3ccc(-c4cnc([C@@H]5CCCN5C(=O)[C@H]5CCCO5)[nH]4)cc3)cc2)[nH]1)c1ccccc1Cl [Example 107-38, (1R)-1-(2-chloro-phenyl)-N,N-dimethyl-2-oxo-2-((2S)-2-(5-(4′-(2-((2S)-1-((2R)-tetrahydro-2-furanylcarbonyl)-2-pyrrolidinyl)-1H-imidazol-5-yl)-4-biphenylyl)-1H-imidazol-2-yl)-1-pyrrolidinyl) ethanamine] | 0.001 to 0.999
COC(=O)N[C@H](C(=O)N1CCC[C@H]1c1ncc(-c2ccc(-c3ccc(-c4cnc([C@@H]5CCCN5C(=O)[C@@H](NC5=NCCS5)C(C)C)[nH]4)cc3)cc2)[nH]1)C(C)C [cj-15c, methyl ((1S)-1-(((2S)-2-(5-(4′-(2-((2S)-1-(N-(4,5-dihydro-1,3-thiazol-2-yl)-L-valyl)-2-pyrrolidinyl)-1H-imidazol-5-yl)-4-biphenylyl)-1H-imidazol-2-yl)-1-pyrrolidinyl)carbonyl)-2-methylpropyl)carbamate] | 0.001 to 0.999
C=CC[C@H](NC(=O)OC)C(=O)N1CCC[C@H]1c1ncc(-c2ccc(-c3ccc(-c4cnc([C@@H]5CCCN5C(=O)[C@@H](NC(=O)OC)C(C)C)[nH]4)cc3)cc2)[nH]1 [Example M76, methyl ((1S)-1-(((2S)-2-(5-(4′-(2-((2S)-1-((2S)-2-((methoxycarbonyl)amino)-3-methylbutanoyl)-2-pyrrolidinyl)-1H-imidazol-5-yl)-4-biphenylyl)-1H-imidazol-2-yl)-1-pyrrolidinyl)carbonyl)-3-buten-1-yl)carbamate] | 1 to 99
COC(=O)N[C@@H](C(=O)N1CCC[C@H]1c1ncc(-c2ccc(-c3ccc(-c4cnc([C@@H]5CCCN5C(=O)C(c5ccsc5)N(C)C)[nH]4)cc3)cc2)[nH]1)c1ccccc1 (stereo partly drawn) [Example 84-47, methyl ((1R)-2-((2S)-2-(5-(4′-(2-((2S)-1-((dimethylamino)(3-thienyl)acetyl)-2-pyrrolidinyl)-1H-imidazol-5-yl)-4-biphenylyl)-1H-imidazol-2-yl)-1-pyrrolidinyl)-2-oxo-1-phenylethyl)carbamate] | 0.001 to 0.999
COC(=O)N[C@@H](C(=O)N1CCC[C@H]1c1ncc(-c2ccc(-c3ccc(-c4cnc([C@@H]5CCCN5C(=O)[C@H](NC(=O)OC)c5ccccc5)[nH]4)cc3)cc2)[nH]1)c1ccccc1 [Example 4, dimethyl (4,4′-biphenyldiylbis(1H-imidazole-5,2-diyl(2S)-2,1-pyrrolidinediyl((1R)-2-oxo-1-phenyl-2,1-ethanediyl)))biscarbamate] | 0.001 to 0.999
O=C([C@@H]1CCN(Cc2ccccc2)C1)N1CCC[C@H]1c1ncc(-c2ccc(-c3ccc(-c4cnc([C@@H]5CCCN5C(=O)[C@@H](c5ccccc5)N5CCCCC5)[nH]4)cc3)cc2)[nH]1 [Example 107-17] | 0.001 to 0.999
